Data from patent US6376243B1, “DNA encoding a human serotonin receptor (5-HT4B) and uses thereof” (Synaptic Pharmaceutical Corporation, priority 1992, dated 2002).
Where two headings read alike, the source gives them in different places.

Assays:
[1] = biological target: T1, clone hp78a (human 5-HT4B receptor) (Homo sapiens, UniProt P34969); assay: Competition of [3H]5-HT binding to membranes of cells transiently expressing clone hp78a
human 5-HT4B receptor = human 5-HT4B receptor (Homo sapiens, UniProt P34969); assay: cAMP formation in intact Cos-7 cells transiently expressing the receptor; conditions: for inhibition at 10 µM: COS-7, read-out: % INHIBITION OF 5-HT RESPONSE
[2] = biological target: T1, clone hp78a (human 5-HT4B receptor); assay: [3H]5-HT saturation binding to membranes of transiently transfected Cos-7 cells; conditions: 100 μM Gpp(NH)p; membranes from transient transfectants
[3] = read-out: Apparent dissociation constant Ki
[4] = 5 nM [3H]5-HT, 30 min at 37° C., mean ± S.E.M.
[5] = Apparent dissociation constant Ki
[6] = Apparent dissociation constant Ki, 5 nM [3H]5-HT, seven concentrations of competitor, 30 min at 37° C., Cheng-Prusoff, mean ± S.E.M. from 2-3 determinations
[7] = competitor 100 nM, 5 nM [3H]5-HT, 30 min at 37° C.

Chain of human 5-HT4B receptor (P34969 1-445 isoform P34969-2): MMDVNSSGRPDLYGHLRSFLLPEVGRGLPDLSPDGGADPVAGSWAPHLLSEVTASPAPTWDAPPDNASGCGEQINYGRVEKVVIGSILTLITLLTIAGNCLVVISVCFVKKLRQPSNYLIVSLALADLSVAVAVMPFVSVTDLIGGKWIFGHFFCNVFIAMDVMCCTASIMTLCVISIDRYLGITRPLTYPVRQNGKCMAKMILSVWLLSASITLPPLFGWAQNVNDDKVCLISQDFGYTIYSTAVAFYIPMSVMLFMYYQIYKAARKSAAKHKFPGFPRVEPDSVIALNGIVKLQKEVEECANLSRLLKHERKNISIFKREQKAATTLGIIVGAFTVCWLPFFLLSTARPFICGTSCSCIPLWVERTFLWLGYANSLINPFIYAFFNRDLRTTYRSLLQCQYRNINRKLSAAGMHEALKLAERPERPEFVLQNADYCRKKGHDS
T1 sequence (P34969 1-445 isoform P34969-2): as above

## CC(C)NCC(O)COc1cccc2[nH]ccc12 (racemic) [Pindolol]
[1]
  PERCENT INHIBITION of specific [3H]5-HT binding: 11%

## c1ccc2c(N3CCNCC3)cccc2c1 [1-NP, 1-naphthylpiperazine]
[1]
  PERCENT INHIBITION of specific [3H]5-HT binding: 44%

## CCN(CC)C(=O)[C@@H]1C=C2c3cccc4[nH]c(Br)c(c34)C[C@H]2N(C)C1 [2-Br-LSD]
Human 5-HT4B receptor; drug 1 μM, intact Cos-7 cells
  FOLD cAMP STIMULATION relative to basal levels: 0 fold
[1]
  Hill coefficient nH: 1.02 ± 0.16
[1]; [3]
  Ki: 39 ± 7 nM

## Cc1[nH]c2ccc(O)cc2c1CCN [2-Me-5-HT]
[1]
  PERCENT INHIBITION of specific [3H]5-HT binding: 7%

## NCCc1c[nH]c2ccc(O)cc12 [5-HT, 5-hydroxytryptamine]
Human 5-HT4B receptor; 5-HT 1 μM, transfected Cos-7 cells
  inhibition of basal or FSK-stimulated cAMP release: not observed
Human 5-HT4B receptor; discussion statement
  increase in cAMP release over basal levels: 20 fold
Human 5-HT4B receptor; ratio of EC50 to Ki
  Ki in binding assays higher affinity than EC50 in functional assays: approximately 100 fold
[1]; [4]
  Hill coefficient nH: 1.07 ± 0.07

## COc1ccc2[nH]cc(CCN)c2c1 [5-MeOT]
Human 5-HT4B receptor
  agonist activity on cAMP: potent agonists
[1]
  Hill coefficient nH: 1.00 ± 0.03

## CC(C)C[C@H]1C(=O)N2CCC[C@H]2[C@]2(O)O[C@](NC(=O)[C@@H]3C=C4c5cccc6[nH]c(Br)c(c56)C[C@H]4N(C)C3)(C(C)C)C(=O)N12 [Bromocriptine]
[1]
  Hill coefficient nH: 1.15
[1]; [5]
  Ki: 135 nM

## CN(C)CCc1c[nH]c2ccc(O)cc12 [Bufotenin]
[1]
  PERCENT INHIBITION of specific [3H]5-HT binding: 40%

## CN1CCC(=C2c3ccccc3C=Cc3ccccc32)CC1 [Cyproheptadine]
[1]; competitor 30 nM, 5 nM [3H]5-HT, 30 min at 37° C.
  PERCENT INHIBITION of specific [3H]5-HT binding: 36%

## CCCN(CCC)CCc1c[nH]c2ccc(C(N)=O)cc12 [DP-5-CT]
[1]
  Hill coefficient nH: 0.78
[1]; [3]
  Ki: 62 nM

## CCCN(CCC)C1CCc2cccc(O)c2C1 (centres unmarked) [DPAT]
[1]; [4]
  Hill coefficient nH: 0.76

## CN1C[C@H](C(=O)N[C@]2(C)O[C@@]3(O)[C@@H]4CCCN4C(=O)[C@H](Cc4ccccc4)N3C2=O)C[C@@H]2c3cccc4[nH]cc(c34)C[C@H]21 [Dihydroergotamine]
[1]
  Hill coefficient nH: 1.36 ± 0.08
[1]; [5]
  Ki: 6 ± 0.2 nM
[1]; [3]
  Ki: 5 to 10 nM

## CN1C[C@H](C(=O)N[C@]2(C)O[C@@]3(O)[C@@H]4CCCN4C(=O)[C@H](Cc4ccccc4)N3C2=O)C=C2c3cccc4[nH]cc(c34)C[C@H]21 [Ergotamine]
[1]
  PERCENT INHIBITION of specific [3H]5-HT binding: 79%

## Nc1nc2c(ncn2[C@@H]2O[C@H](COP(=O)(O)OP(=O)(O)NP(=O)(O)O)[C@@H](O)[C@H]2O)c(=O)[nH]1 [Gpp(NH)p, 5′-guanylylimidodiphosphate]
[2]
  reduction of high affinity [3H]5-HT binding: 75%

## CN1[C@@H]2CC[C@H]1C[C@@H](OC(=O)c1c[nH]c3ccccc13)C2 [ICS 203930]
Human 5-HT4B receptor; 100 μM
  inhibitory effect on the 5-HT cAMP response: weak inhibitory effect
Human 5-HT4B receptor; discussion statement
  activity at the 5-HT4B receptor: either poorly active or inactive
[1]; read-out: Apparent dissociation constant Ki, 5 nM [3H]5-HT, seven concentrations of competitor, 30 min at 37° C., Cheng-Prusoff, mean ± S.E.M. from 2-3 determinations
  Ki: > 500 nM

## O=C(c1ccc(F)cc1)C1CCN(CCn2c(=O)[nH]c3ccccc3c2=O)CC1 [Ketanserin]
[1]; [6]
  Ki: > 100 nM
[1]; [7]
  PERCENT INHIBITION of specific [3H]5-HT binding: 17%

## CN1C[C@@H](NS(=O)(=O)N(C)C)C[C@@H]2c3cccc4c3c(cn4C)C[C@H]21 [Mesulergine]
[1]; [4]
  Hill coefficient nH: 1.09
[1]; [6]
  Ki: 9.6 nM

## CN1C[C@H](CNC(=O)OCc2ccccc2)C[C@@H]2c3cccc4c3c(cn4C)C[C@H]21 [Metergoline]
Human 5-HT4B receptor; 10 μM
  antagonism of the 5-HT cAMP response: almost completely
Human 5-HT4B receptor
  inhibition at 10 µM: 96 ± 1%
[1]; [4]
  Hill coefficient nH: 1.23
[1]; [6]
  Ki: 5.5 nM

## CC[C@@H](CO)NC(=O)[C@@H]1C=C2c3cccc4c3c(cn4C)C[C@H]2N(C)C1 [Methysergide]
Human 5-HT4B receptor
  antagonism of the 5-HT cAMP response: almost completely
  inhibition at 10 µM: 82 ± 1.5%
[1]
  PERCENT INHIBITION of specific [3H]5-HT binding: 51%

## Cc1nc2sccn2c(=O)c1CCN1CCC(=C(c2ccc(F)cc2)c2ccc(F)cc2)CC1 [Ritanserin]
[1]; competitor 10 nM, 5 nM [3H]5-HT, 30 min at 37° C.
  PERCENT INHIBITION of specific [3H]5-HT binding: 32%

## O=C(CCCN1CCC2(CC1)C(=O)NCN2c1ccccc1)c1ccc(F)cc1 [Spiperone]
[1]; [7]
  PERCENT INHIBITION of specific [3H]5-HT binding: 64%

## CNS(=O)(=O)Cc1ccc2[nH]cc(CCN(C)C)c2c1 [Sumatriptan]
[1]; [4]
  Hill coefficient nH: 0.88 ± 0.03
[1]; [6]
  Ki: 764 ± 29 nM

## NCCc1c[nH]c2ccccc12 [Tryptamine]
[1]
  PERCENT INHIBITION of specific [3H]5-HT binding: 32%

## COc1cc(N)c(Cl)cc1C(=O)NC1CN2CCC1CC2 (centres unmarked) [Zacopride]
Human 5-HT4B receptor; discussion statement
  activity at the 5-HT4B receptor: either poorly active or inactive
[1]; [6]
  Ki: > 500 nM
[1]; [7]
  PERCENT INHIBITION of specific [3H]5-HT binding: 0%

## COc1cc(N)c(Cl)cc1C(=O)NC1CCN(CCCOc2ccc(F)cc2)CC1OC (centres unmarked) [cisapride]
Human 5-HT4B receptor; discussion statement
  activity at the 5-HT4B receptor: either poorly active or inactive
